Measurements taken from ChEMBL document CHEMBL1146110, “QSAR study on topically acting sulfonamides incorporating GABA moieties: a molecular connectivity approach” (Bioorg Med Chem Lett, 2006).
pKi: −log10 of the molar value.

Assays:
Carbonic anhydrase 4 = target: T1, Carbonic anhydrase 4 (Bos taurus, UniProt Q95323)
T1 sequence (Q95323 whole entry): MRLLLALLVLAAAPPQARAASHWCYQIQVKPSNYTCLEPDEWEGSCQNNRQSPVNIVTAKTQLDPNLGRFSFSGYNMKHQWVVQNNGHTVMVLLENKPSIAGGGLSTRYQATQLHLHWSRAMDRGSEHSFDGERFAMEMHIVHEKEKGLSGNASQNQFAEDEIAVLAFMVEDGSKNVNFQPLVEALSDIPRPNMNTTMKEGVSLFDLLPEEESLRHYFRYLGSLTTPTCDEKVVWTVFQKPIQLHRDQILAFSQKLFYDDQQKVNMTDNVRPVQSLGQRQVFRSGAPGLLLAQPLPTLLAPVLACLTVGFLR

Carbonic anhydrase 1 = Carbonic anhydrase 1 (Homo sapiens, UniProt P00915)
Chain of Carbonic anhydrase 1 (P00915 whole entry): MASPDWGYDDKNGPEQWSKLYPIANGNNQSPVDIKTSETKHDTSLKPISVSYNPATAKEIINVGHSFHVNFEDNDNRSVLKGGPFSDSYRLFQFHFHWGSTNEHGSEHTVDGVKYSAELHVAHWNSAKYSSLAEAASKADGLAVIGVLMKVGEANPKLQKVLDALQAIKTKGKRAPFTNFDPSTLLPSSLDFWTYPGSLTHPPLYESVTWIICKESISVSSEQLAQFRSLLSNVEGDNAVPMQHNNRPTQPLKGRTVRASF

Structure (SMILES)	pKi (Carbonic anhydrase 4)	pKi (Carbonic anhydrase 1)
NCCCC(=O)Nc1ccc(S(=O)(=O)Nc2ccc(S(N)(=O)=O)cc2)cc1	7.12	7.20
NCCCC(=O)Oc1ccc2nc(S(N)(=O)=O)sc2c1	7.92	7.82
NCCCC(=O)Nc1nnc(S(N)(=O)=O)s1	7.37	6.52
NS(=O)(=O)c1ccc(CCO)cc1	8.30	
NCCCC(=O)Nc1cc(Cl)c(S(N)(=O)=O)cc1S(N)(=O)=O	7.30	6.46
CCN(C(=O)CCCN)C1CC(C)S(=O)(=O)c2sc(S(N)(=O)=O)cc21 (stereo not drawn)	7.49	7.25
NCCCC(=O)Nc1ccc(S(N)(=O)=O)cc1F	7.42	6.28
NCCCC(=O)Nc1ccccc1S(N)(=O)=O	6.61	4.70
NCCCC(=O)NCc1ccc(S(N)(=O)=O)cc1	7.16	
NCCCC(=O)Nc1ccc(S(=O)(=O)Nc2cccc(S(N)(=O)=O)c2)cc1	7.17	7.21
NCCCC(=O)NNc1ccc(S(N)(=O)=O)cc1	6.52	4.65
NCCCC(=O)Nc1ccc2nc(S(N)(=O)=O)sc2c1	7.92	7.85
NCCCC(=O)Nc1ccc(S(N)(=O)=O)cc1Br	7.22	6.28
Cn1nc(S(N)(=O)=O)s/c1=N\C(=O)CCCN	7.38	6.51
NCCCC(=O)Nc1c(S(N)(=O)=O)cc(S(N)(=O)=O)c(Cl)c1Cl	7.30	6.35
Cn1nc(S(N)(=O)=O)s/c1=N/S(=O)(=O)c1ccc(NC(=O)CCCN)cc1		7.82
NCCCC(=O)NCCc1ccc(S(N)(=O)=O)cc1	7.21	
NCCCC(=O)NCCC(=O)Nc1nnc(S(N)(=O)=O)s1	7.82	7.62
Cn1nc(S(N)(=O)=O)s/c1=N/S(=O)(=O)c1ccc(N)cc1	8.10	8.05
NCCCC(=O)OCCOc1ccc2nc(S(N)(=O)=O)sc2c1	7.96	8.00
NCCCC(=O)Nc1ccc(S(N)(=O)=O)cc1I	7.25	6.30
NCCCC(=O)OCc1ccc(S(N)(=O)=O)cc1	6.74	5.76
NCCCC(=O)Nc1ccc(S(N)(=O)=O)cc1	6.79	4.82
NCCCC(=O)Nc1cccc(S(N)(=O)=O)c1	6.67	4.76
NCCCC(=O)Nc1ccc(S(N)(=O)=O)cc1Cl	7.20	6.25
NCCCC(=O)Nc1nccc(Nc2ccc(S(N)(=O)=O)cc2)n1	7.30	7.29
